# Measurements reported in US8906879B2, “Combination for the treatment of cancer” (GlaxoSmithKline Intellectual Property (No. 2) Limited, priority 2010, dated 2014).
# Assays:
# [1] = test system: BxPC-3; assay: Cell growth inhibition assay (Cell Titer Glo), BxPC-3; format: cell-based; conditions: Homo sapiens, 72 h; single agent; BxPC-3, KRAS WT; 3 days
# Protocol: (§1) BxPC-3, HuP-T4, PL45, Panc-02-03, Mia-PaCa, HPAF-II, SW1990, Panc-08-13, Capan-1, AsPC-1, Capan-2, HPAC, YAPC and Panc-1 lines were used in the study. BxPC-3, Mia-PaCa, HPAF-11, SW1990, AsPC-1, Capan-2 and YAPC were cultured in RPMI 1640 medium (cat#72400 047, Invitrogen) containing 10% fetal bovine serum (FBS) (cat#SH30071.03, Hyclone). Capan-1 and HuP-T4 were cultured in RPMI 1640 medium containing 20% FBS. PL45 and PANC-1 lines were cultured in DMEM (ATCC 30-2002) containing 10% FBS. Panc-02-03 and Panc-08-13 were cultured in RPMI 1640 medium containing 15% fetal bovine serum and ITSX (51500-056, Gibco). HPAC was cultured in RPMI 1640 medium containing 5% FBS, ITSX, 40 ng/ml Hydrocortism, and 10 ng/ml EGF (85570C-1MG, SAFC Biosciences).
# (§2) All cells were cultured for a minimum of 72 hours prior to cell plating. […] ATP levels were determined by adding Cell Titer Glo® (Promega) according to the manufacturer's protocol. Briefly, Cell Titer Glo® was added to each plate, incubated for 30 minutes and then the luminescent signal was read on the SpectraMax L plate reader with a 0.5 sec integration time.
# (§3) Inhibition of cell growth was estimated after treatment with compound or combination of compounds for three days and the signal was compared to cells treated with vehicle (DMSO). Cell growth was calculated relative to vehicle (DMSO) treated control wells. […]
# [2] = test system: HuP-T4; assay: Cell growth inhibition assay (Cell Titer Glo), HuP-T4; format: cell-based; conditions: Homo sapiens, 72 h; single agent; HuP-T4, KRAS G12V; 3 days
# Protocol: as §1, §2, §3
# [3] = test system: PL45; assay: Cell growth inhibition assay (Cell Titer Glo), PL45; format: cell-based; conditions: Homo sapiens, 72 h; single agent; PL45, KRAS G12D; 3 days
# Protocol: as §1, §2, §3
# [4] = test system: Panc-02-03; assay: Cell growth inhibition assay (Cell Titer Glo), Panc-02-03; format: cell-based; conditions: Homo sapiens, Panc 02.03, 72 h; single agent; Panc-02-03, KRAS G12D; 3 days
# Protocol: as §1, §2, §3
# [5] = test system: Mia-PaCa; assay: Cell growth inhibition assay (Cell Titer Glo), Mia-PaCa; format: cell-based; conditions: Homo sapiens, MIA PaCa-2, 72 h, single agent, KRAS G12C, 3 days
# Protocol: as §1, §2, §3
# [6] = test system: HPAF-II; assay: Cell growth inhibition assay (Cell Titer Glo), HPAF-II; format: cell-based; conditions: Homo sapiens, 72 h, single agent, KRAS G12D, 3 days
# Protocol: as §1, §2, §3
# [7] = test system: SW1990; assay: Cell growth inhibition assay (Cell Titer Glo), SW1990; format: cell-based; conditions: Homo sapiens, 72 h; single agent; SW1990, KRAS G12D; 3 days
# Protocol: as §1, §2, §3
# [8] = test system: Panc-08-13; assay: Cell growth inhibition assay (Cell Titer Glo), Panc-08-13; format: cell-based; conditions: Homo sapiens, 72 h; single agent; Panc-08-13, KRAS G12D; 3 days
# Protocol: as §1, §2, §3
# [9] = test system: Capan-1; assay: Cell growth inhibition assay (Cell Titer Glo), Capan-1; format: cell-based; conditions: Homo sapiens, 72 h; single agent; Capan-1, KRAS G12V; 3 days
# Protocol: as §1, §2, §3
# [10] = test system: AsPC-1; assay: Cell growth inhibition assay (Cell Titer Glo), AsPC-1; format: cell-based; conditions: Homo sapiens, ASPC1, 72 h; single agent; AsPC-1, KRAS G12D; 3 days
# Protocol: as §1, §2, §3
# [11] = test system: Capan-2; assay: Cell growth inhibition assay (Cell Titer Glo), Capan-2; format: cell-based; conditions: Homo sapiens, 72 h; single agent; Capan-2, KRAS G12V; 3 days
# Protocol: as §1, §2, §3
# [12] = test system: HPAC; assay: Cell growth inhibition assay (Cell Titer Glo), HPAC; format: cell-based; conditions: Homo sapiens, 72 h, single agent, KRAS G12D, 3 days
# Protocol: as §1, §2, §3
# [13] = test system: YAPC; assay: Cell growth inhibition assay (Cell Titer Glo), YAPC; format: cell-based; conditions: Homo sapiens, 72 h, single agent, KRAS G12V, 3 days
# Protocol: as §1, §2, §3
# [14] = test system: Panc-1; assay: Cell growth inhibition assay (Cell Titer Glo), Panc-1; format: cell-based, human; conditions: for IC50: Homo sapiens, 72 h, single agent, Panc-1, KRAS G12D, 3 days; for sensitivity of cell growth (in words): KRAS mutant Panc-1 cells
# Protocol: as §1
# (§4) All cells were cultured for a minimum of 72 hours prior to cell plating. Cells were assayed in a 96-well tissue culture plate (NUNC 136102) of RPMI medium containing 10% FBS for all cells at 1,000 cells per well. Approximately 24 hours after plating, cells were exposed to ten, three-fold serial dilutions of compound or the combination of the two agents at a constant molar to molar ratio of 1:1 Compound A to Compound B in RPMI media containing 10% FBS. Cells were incubated in the presence of compounds for 3 days. ATP levels were determined by adding Cell Titer Glo® (Promega) according to the manufacturer's protocol. Briefly, Cell Titer Glo® was added to each plate, incubated for 30 minutes and then the luminescent signal was read on the SpectraMax L plate reader with a 0.5 sec integration time.
# as §3
# (§5) Combination effects on potency were evaluated using Combination Index (CI) which was calculated with the back-interpolated IC50 values and the mutually non-exclusive equation derived by Chou and Talalay: CI=Da/IC50(a)+Db/IC50(b)+(Da×Db)/(IC50(a)×IC50(b)) […]
# (§6) The combination effects on the response scale were quantified by Excess Over Highest Single Agent (EOHSA) based on the concept of nonlinear blending as described in detail by Liu et al, 2011. […] For single agent and combination treatments, cells were exposed to compounds at a fixed-dose-ratio, and dose response curves were fit to the experimental data and analyzed using regression models. At specified total dose levels of IC50 along the dose response curve, the dose combination (corresponding to IC50) was determined for making EOHSA statistical inferences. […]
# [15] = test system: KRAS mutant lines HPAF-11, SW1990, Panc-08-13 and Capan-1; assay: Cell growth inhibition assay, four KRAS mutant lines; format: cell-based; conditions: Homo sapiens; single agent; over HPAF-11, SW1990, Panc-08-13 and Capan-1
# Protocol: as §1, §4, §3, §5, §6
# [16] = test system: KRAS mutant tumor lines, HuP-T4, PL45, Panc-02-03 and Mia-PaCa; assay: as above; format: cell-based; conditions: Homo sapiens; single agent; range over HuP-T4, PL45, Panc-02-03 and Mia-PaCa
# Protocol: as §1, §4, §3, §5, §6
IC50 [1] [nM],IC50 [4] [nM],IC50 [5] [nM],IC50 [7] [nM],IC50 [8] [nM],IC50 [10] [nM],IC50 [14] [nM],IC50 [15] [nM],IC50 [16] [nM],Compound,IC50 [2] [nM],IC50 [3] [nM],IC50 [6] [nM],IC50 [9] [nM],IC50 [11] [nM],IC50 [12] [nM],IC50 [13] [nM],sensitivity of cell growth (in words) [14]
8,88 ± 17,21 ± 1,≥ 1000,> 1000,> 1000,> 1000,> 1000,7 to 88,"Nc1ccn([C@@H]2O[C@H](CO)[C@@H](O)C2(F)F)c(=O)n1 [Compound B, 4-amino-1-(2-deoxy-2,2-difluoro-β-D-erythro-pentofuranosyl)pyrimidin-2(1H)-on 2′,2′-difluoro-2′-deoxycytidine]",7 ± 5,13 ± 2,> 1000,> 1000,> 1000,> 1000,12 ± 8,resistant
14,32 ± 13,59 ± 28,62 ± 43,67 ± 14,5,> 1000,59 to 193,1 to 59,"CC(=O)Nc1cccc(-n2c(=O)n(C3CC3)c(=O)c3c(Nc4ccc(I)cc4F)n(C)c(=O)c(C)c32)c1 [Compound A, N-{3-[3-cyclopropyl-5-(2-fluoro-4-iodo-phenylamino)-6,8-dimethyl-2,4,7-trioxo-3,4,6,7-tetrahydro-2H-pyrido[4,3-d]pyrimidin-1-yl]phenyl}acetamide]",1 ± 1,15 ± 4,59 ± 53,193 ± 78,10 ± 1,21 ± 6,> 1000,resistant
